Reference: ChEMBL document CHEMBL3797194, “Benzimidazolone bioisosteres of potent GluN2B selective NMDA receptor antagonists” (Eur J Med Chem, 2016)
Each block holds one molecule with its values, some of them ahead of it.

Key:
[1] = biological target: Sigma non-opioid intracellular receptor 1 (Cavia porcellus) (UniProt Q60492); experiment: Displacement of [3H]-(+)-Pentazocine from sigma1 receptor in guinea pig brain homogenate at 1 uM incubated for 120 mins by solid scintillation counting analysis; type: tissue-based
Sequence of Sigma non-opioid intracellular receptor 1 (Cavia porcellus) (Q60492 whole entry): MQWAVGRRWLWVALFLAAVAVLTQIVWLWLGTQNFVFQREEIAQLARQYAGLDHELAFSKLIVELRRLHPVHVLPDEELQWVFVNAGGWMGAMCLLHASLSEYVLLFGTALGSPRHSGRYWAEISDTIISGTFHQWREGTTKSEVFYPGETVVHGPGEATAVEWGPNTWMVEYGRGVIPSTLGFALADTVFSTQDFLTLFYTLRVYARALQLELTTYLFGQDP

[2] = species: Rattus norvegicus; experiment: Displacement of [3H]DTG from sigma2 receptor in rat liver homogenate at 1 uM incubated for 120 mins by solid scintillation counting analysis; type: tissue-based
[3] = biological target: T1, Glutamate receptor ionotropic, NMDA 2B (Homo sapiens, UniProt Q13224); experiment: Displacement of [3H]ifenprodil from recombinant human GluN2B expressed in mouse L(tk-) cell membranes at 1 uM incubated for 120 mins by microbeta scintillation counting analysis
Target sequence in this assay (Q13224 27-1484 limits assumed): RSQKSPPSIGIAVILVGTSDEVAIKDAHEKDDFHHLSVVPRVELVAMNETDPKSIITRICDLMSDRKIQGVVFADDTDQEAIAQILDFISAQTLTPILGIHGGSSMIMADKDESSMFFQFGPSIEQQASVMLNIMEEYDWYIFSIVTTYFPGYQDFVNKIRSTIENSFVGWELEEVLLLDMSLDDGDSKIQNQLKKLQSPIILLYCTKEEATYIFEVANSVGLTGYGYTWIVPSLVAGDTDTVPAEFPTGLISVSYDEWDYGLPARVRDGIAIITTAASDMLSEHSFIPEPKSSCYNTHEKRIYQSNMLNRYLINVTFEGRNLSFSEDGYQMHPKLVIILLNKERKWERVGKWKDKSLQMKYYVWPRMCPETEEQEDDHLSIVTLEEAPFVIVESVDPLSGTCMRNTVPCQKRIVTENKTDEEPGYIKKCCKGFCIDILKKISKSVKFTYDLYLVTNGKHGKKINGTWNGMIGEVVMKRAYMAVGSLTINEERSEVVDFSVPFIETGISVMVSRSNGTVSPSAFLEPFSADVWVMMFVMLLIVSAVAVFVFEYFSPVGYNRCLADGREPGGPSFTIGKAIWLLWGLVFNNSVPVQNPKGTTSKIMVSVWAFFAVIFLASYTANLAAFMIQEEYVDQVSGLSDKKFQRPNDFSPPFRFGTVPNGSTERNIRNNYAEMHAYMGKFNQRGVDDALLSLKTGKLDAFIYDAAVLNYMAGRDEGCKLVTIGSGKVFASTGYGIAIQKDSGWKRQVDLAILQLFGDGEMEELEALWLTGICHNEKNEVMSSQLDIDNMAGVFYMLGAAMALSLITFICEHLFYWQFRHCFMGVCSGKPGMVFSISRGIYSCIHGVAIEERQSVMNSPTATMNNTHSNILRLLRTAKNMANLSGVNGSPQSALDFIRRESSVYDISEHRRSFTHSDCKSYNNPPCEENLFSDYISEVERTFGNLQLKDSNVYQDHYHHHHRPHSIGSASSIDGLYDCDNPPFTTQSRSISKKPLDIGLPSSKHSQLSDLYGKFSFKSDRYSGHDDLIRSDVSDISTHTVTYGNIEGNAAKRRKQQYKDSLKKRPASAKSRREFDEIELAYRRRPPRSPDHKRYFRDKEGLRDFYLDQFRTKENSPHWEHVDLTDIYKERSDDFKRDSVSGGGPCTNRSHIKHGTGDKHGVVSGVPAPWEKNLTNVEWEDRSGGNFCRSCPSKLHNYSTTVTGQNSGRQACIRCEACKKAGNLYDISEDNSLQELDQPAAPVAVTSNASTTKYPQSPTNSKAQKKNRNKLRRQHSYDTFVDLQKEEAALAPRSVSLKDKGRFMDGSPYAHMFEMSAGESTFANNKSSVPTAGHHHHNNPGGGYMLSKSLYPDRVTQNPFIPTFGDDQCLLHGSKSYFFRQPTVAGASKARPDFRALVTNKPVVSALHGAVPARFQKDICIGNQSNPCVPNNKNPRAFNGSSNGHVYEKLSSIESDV

[4] = biological target: T1, Glutamate receptor ionotropic, NMDA 2B; experiment: Binding affinity to GluN2B (unknown origin)
Target sequence in this assay (Q13224 whole entry): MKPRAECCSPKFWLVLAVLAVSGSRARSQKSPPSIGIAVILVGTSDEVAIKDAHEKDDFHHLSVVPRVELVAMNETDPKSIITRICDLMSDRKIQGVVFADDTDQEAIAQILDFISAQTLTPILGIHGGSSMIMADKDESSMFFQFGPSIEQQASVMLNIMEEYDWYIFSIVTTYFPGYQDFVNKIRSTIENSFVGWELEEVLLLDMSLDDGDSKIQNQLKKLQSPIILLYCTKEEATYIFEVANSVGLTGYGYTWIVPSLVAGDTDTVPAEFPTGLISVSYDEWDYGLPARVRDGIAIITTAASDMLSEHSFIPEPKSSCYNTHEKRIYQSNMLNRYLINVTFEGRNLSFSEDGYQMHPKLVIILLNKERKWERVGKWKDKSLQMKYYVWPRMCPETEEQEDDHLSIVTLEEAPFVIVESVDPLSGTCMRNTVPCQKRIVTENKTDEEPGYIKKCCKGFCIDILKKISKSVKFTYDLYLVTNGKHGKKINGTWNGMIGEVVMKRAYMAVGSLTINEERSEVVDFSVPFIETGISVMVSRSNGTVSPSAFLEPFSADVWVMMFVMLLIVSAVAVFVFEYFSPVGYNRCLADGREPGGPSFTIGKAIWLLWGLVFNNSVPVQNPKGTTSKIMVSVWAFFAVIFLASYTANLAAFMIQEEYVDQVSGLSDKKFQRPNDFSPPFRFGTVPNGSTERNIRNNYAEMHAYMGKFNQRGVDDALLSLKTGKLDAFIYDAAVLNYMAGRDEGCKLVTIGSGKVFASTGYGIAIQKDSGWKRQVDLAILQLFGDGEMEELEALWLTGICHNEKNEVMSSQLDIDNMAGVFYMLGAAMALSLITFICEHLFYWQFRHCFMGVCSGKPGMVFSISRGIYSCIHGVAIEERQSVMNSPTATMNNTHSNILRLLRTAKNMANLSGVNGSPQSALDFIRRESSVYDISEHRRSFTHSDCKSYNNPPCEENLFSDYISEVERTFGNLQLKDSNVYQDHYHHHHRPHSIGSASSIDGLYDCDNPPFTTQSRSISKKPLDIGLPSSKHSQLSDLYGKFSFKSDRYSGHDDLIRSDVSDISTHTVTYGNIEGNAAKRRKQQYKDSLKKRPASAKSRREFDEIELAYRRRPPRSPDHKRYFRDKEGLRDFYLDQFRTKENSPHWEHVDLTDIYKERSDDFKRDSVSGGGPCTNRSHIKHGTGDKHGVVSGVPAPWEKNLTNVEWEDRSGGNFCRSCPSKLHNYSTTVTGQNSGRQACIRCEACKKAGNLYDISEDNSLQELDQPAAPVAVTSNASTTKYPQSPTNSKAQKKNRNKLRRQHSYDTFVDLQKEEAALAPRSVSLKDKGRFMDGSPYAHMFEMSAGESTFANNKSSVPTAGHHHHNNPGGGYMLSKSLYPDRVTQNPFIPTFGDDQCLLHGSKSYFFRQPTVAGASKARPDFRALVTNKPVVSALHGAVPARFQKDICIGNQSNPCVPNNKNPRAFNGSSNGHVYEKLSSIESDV

[5] = biological target: T1, Glutamate receptor ionotropic, NMDA 2B; experiment: Displacement of [3H]ifenprodil from recombinant human GluN2B expressed in mouse L(tk-) cell membranes incubated for 120 mins by microbeta scintillation counting analysis
Target sequence in this assay (Q13224 whole entry): as above

[6] = Displacement of [3H]DTG from sigma2 receptor in rat liver homogenate incubated for 120 mins by solid scintillation counting analysis; type: tissue-based
[7] = biological target: Sigma non-opioid intracellular receptor 1 (Cavia porcellus, UniProt Q60492); experiment: Displacement of [3H]-(+)-Pentazocine from sigma1 receptor in guinea pig brain homogenate incubated for 120 mins by solid scintillation counting analysis; type: tissue-based
Sequence of Sigma non-opioid intracellular receptor 1 (Q60492 whole entry): as the sequence (Q60492 whole entry) above

SMILES: O=c1[nH]c2ccc([S+]([O-])CCN3CCC(Cc4ccc(F)cc4)CC3)cc2o1 (centres undefined) [BESONPRODIL]
- Ki [4]: 30 nM

SMILES: Cn1c(=O)n(C)c2cc3c(cc21)CCCC(NCCCc1ccccc1)C3 (racemic)
- Ki [5]: 697 nM
- Ki [6]: 549 nM
- Ki [7]: 4000 nM

SMILES: Cn1c(=O)n(C)c2cc3c(cc21)CCC[C@@H](O)[C@@H]3NCCCc1ccccc1 (racemic)
- inhibition [1]: 19%
- inhibition [2]: 32%
- inhibition [3]: 0%

SMILES: Cc1ccccc1NC(=N)Nc1ccccc1C [DITOLYLGUANIDINE]
- Ki [6]: 57.5 nM

The next lines start with the values.

- inhibition [1]: 11%
- inhibition [2]: 5%
- inhibition [3]: 0%
SMILES: Cn1c(=O)n(C)c2cc3c(cc21)CCC[C@H](O)[C@@H]3O (racemic)

- inhibition [1]: 0%
- inhibition [2]: 18%
- inhibition [3]: 18%
SMILES: Cn1c(=O)n(C)c2cc3c(cc21)CCC[C@@H](O)[C@@H]3O (racemic)
